In patent US7994209B2, “3-phenoxymethylpyrrolidine compounds” (Theravance, Inc., priority 2009, dated 2011):
pKi: −log10 of the molar value.

What was measured:
hSERT [1] = target: T1, hSERT (Homo sapiens, UniProt P31645); assay: hSERT membrane radioligand binding assay (3H-citalopram), Assay 1; details: SERT pKi, hSERT HEK-293 membranes, 1.0 nM 3H-citalopram; values given as lower bounds
hNET [2] = target: T2, hNET (Homo sapiens, UniProt P23975); assay: hNET membrane radioligand binding assay (3H-nisoxetine), Assay 1
hSERT [3] = target: T1, hSERT; assay: hSERT neurotransmitter uptake assay (3H-5-HT), Assay 2; assay type: cell-based; design: expressed in transfected cells; host or cells: HEK-293; details: serotonin reuptake inhibition, 3H-5-HT uptake, HEK-293 hSERT cells (values without asterisk); read-out: SERT pIC50 (converted)
Procedure: (§1) Cells were harvested by centrifugation at 1100 rpm for 5 minutes, washed once by resuspension in PBS, then centrifuged. The supernatant was discarded and the cell pellet resuspended, by gentle trituration, in room temperature Krebs-Ringer bicarbonate buffer containing HEPES (10 mM), CaCl2 (2.2 mM), ascorbic acid (200 μM) and pargyline (200 μM), pH 7.4.
(§2) Test compounds were incubated for 30 minutes at 37° C. with the respective cells, prior to addition of radiolabeled neurotransmitter, ^3H-5-HT (20 nM final concentration), ^3H-NE (50 nM final concentration) or ^3H-DA (100 nM final concentration).

hNET [4] = target: T2, hNET; assay: hNET neurotransmitter uptake assay (3H-NE), Assay 2; assay type: cell-based; design: expressed in transfected cells; host or cells: HEK-293; details: norepinephrine reuptake inhibition, 3H-NE uptake, HEK-293 hNET cells (values without asterisk); read-out: NET pIC50 (converted)
Procedure: as §1, §2

T2 sequence (P23975 whole entry): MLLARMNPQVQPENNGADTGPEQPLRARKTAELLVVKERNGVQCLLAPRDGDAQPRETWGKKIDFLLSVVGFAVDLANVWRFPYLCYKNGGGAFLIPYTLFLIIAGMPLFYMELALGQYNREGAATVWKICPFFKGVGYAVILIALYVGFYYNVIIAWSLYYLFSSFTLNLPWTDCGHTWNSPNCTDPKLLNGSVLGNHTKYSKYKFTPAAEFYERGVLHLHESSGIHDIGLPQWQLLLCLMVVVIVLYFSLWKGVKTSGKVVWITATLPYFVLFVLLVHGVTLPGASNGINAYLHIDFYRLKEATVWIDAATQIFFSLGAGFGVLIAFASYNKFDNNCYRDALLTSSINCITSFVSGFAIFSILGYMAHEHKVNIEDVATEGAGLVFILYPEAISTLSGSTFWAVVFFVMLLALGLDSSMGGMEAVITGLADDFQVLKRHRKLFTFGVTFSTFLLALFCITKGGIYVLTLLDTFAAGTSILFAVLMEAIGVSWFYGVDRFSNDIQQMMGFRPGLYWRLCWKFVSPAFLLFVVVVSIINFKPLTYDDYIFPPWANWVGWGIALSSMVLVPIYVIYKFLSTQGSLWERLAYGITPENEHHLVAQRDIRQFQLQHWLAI
T1 sequence (P31645 whole entry): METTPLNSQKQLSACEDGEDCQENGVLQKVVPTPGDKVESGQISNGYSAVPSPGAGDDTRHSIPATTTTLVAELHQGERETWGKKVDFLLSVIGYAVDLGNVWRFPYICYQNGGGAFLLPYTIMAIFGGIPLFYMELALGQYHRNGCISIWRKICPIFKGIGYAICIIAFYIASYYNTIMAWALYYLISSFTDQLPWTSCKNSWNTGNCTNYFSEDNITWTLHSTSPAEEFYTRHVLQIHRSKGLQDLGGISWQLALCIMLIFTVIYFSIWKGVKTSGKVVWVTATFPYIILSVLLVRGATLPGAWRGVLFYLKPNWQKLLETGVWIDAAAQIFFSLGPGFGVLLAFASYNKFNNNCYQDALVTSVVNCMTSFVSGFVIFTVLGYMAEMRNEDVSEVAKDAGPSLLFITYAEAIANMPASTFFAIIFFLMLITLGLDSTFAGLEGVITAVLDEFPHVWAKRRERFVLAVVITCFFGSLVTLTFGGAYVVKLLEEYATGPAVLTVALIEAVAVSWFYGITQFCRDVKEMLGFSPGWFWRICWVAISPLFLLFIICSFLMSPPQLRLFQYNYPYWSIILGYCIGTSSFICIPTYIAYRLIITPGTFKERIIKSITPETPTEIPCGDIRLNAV

Row | Compound | pKi (hSERT [1]) | pKi (hNET [2]) | IC50 (hSERT [3]) | IC50 (hNET [4])
1 | CCC[C@H](Oc1ccccc1Cl)[C@H]1CCNC1 [Example 4-19, (S)-3-[(S)-1-(2-Chlorophenoxy)butyl]pyrrolidine] | ≥ 8.00 | ≥ 8.00 | ≤ 100 nM | ≤ 10 nM
2 | CCC[C@@H](Oc1ccccc1Cl)[C@H]1CCNC1 [Example 4-20, (S)-3-[(R)-1-(2-Chlorophenoxy)butyl]pyrrolidine] | ≥ 8.00 | ≥ 8.00 | ≤ 100 nM | ≤ 10 nM
3 | CCC[C@@H](Oc1cccc(Cl)c1Cl)[C@H]1CCNC1 [Example 4-23, (S)-3-[(R)-1-(2,3-Dichlorophenoxy)butyl]pyrrolidine] | ≥ 8.00 | ≥ 8.00 | ≤ 10 nM | ≤ 10 nM
4 | CCC[C@@H](Oc1cccc(Cl)c1Cl)[C@@H]1CCNC1 [Example 4-25, (R)-3-[(R)-1-(2,3-Dichlorophenoxy)butyl]pyrrolidine] | ≥ 8.00 | ≥ 8.00 | ≤ 10 nM | ≤ 10 nM
5 | CCC[C@H](Oc1c(Cl)ccc(Cl)c1Cl)[C@H]1CCNC1 [Example 4-27, (S)-3-[(S)-1-(2,3,6-Trichlorophenoxy)butyl]pyrrolidine] | ≥ 8.00 | ≥ 8.00 | ≤ 10 nM | ≤ 10 nM
6 | CCC[C@H](Oc1ccc(Cl)cc1Cl)[C@H]1CCNC1 [Example 4-28, (S)-3-[(S)-1-(2,4-Dichlorophenoxy)butyl]pyrrolidine] | ≥ 8.00 | ≥ 8.00 | ≤ 10 nM | ≤ 10 nM
7 | CCC[C@H](Oc1ccc(F)cc1Cl)[C@H]1CCNC1 [Example 4-32, (S)-3-[(S)-1-(2-Chloro-4-fluorophenoxy)butyl]pyrrolidine] | ≥ 8.00 | ≥ 8.00 | ≤ 10 nM | ≤ 10 nM
8 | CCC[C@H](Oc1c(Cl)cccc1Cl)[C@H]1CCNC1 [Example 4-33, (S)-3-[(S)-1-(2,6-Dichlorophenoxy)butyl]pyrrolidine] | ≥ 8.00 | ≥ 8.00 | ≤ 100 nM | ≤ 10 nM
9 | CCC[C@H](Oc1ccc(C)cc1Cl)[C@H]1CCNC1 [Example 4-37, (S)-3-[(S)-1-(2-Chloro-4-methylphenoxy)butyl]pyrrolidine] | ≥ 8.00 | ≥ 8.00 | ≤ 10 nM | ≤ 10 nM
10 | CCC[C@H](Oc1c(F)ccc(OC)c1Cl)[C@H]1CCNC1 [Example 4-43, (S)-3-[(S)-1-(2-Chloro-6-fluoro-3-methoxyphenoxy)butyl]pyrrolidine] | ≥ 8.00 | ≥ 8.00 | ≤ 10 nM | ≤ 10 nM
11 | CCC[C@H](Oc1ccc(F)c(F)c1F)[C@H]1CCNC1 [Example 4-50, (S)-3-[(S)-1-(2,3,4-Trifluorophenoxy)butyl]pyrrolidine] | ≥ 8.00 | ≥ 8.00 | ≤ 100 nM | ≤ 10 nM
12 | CCC[C@H](Oc1cccc(Cl)c1C)[C@H]1CCNC1 [Example 4-54, (S)-3-[(S)-1-(3-Chloro-2-methylphenoxy)butyl]pyrrolidine] | ≥ 8.00 | ≥ 8.00 | ≤ 10 nM | ≤ 10 nM
13 | CCC[C@@H](Oc1cccc(Cl)c1C)[C@H]1CCNC1 [Example 4-55, (S)-3-[(R)-1-(3-Chloro-2-methylphenoxy)butyl]pyrrolidine] | ≥ 8.00 | ≥ 8.00 | ≤ 100 nM | ≤ 10 nM
14 | CCC[C@@H](Oc1cccc(Cl)c1C)[C@@H]1CCNC1 [Example 4-57, (R)-3-[(R)-1-(3-Chloro-2-methylphenoxy)butyl]pyrrolidine] | ≥ 8.00 | ≥ 8.00 | ≤ 10 nM | ≤ 10 nM
15 | CCC[C@H](Oc1ccc(Cl)cc1C)[C@H]1CCNC1 [Example 4-58, (S)-3-[(S)-1-(4-Chloro-2-methylphenoxy)butyl]pyrrolidine] | ≥ 8.00 | ≥ 8.00 | ≤ 10 nM | ≤ 10 nM
16 | CCC[C@@H](Oc1cccc(C)c1C)[C@@H]1CCNC1 [Example 4-63, (R)-3-[(R)-1-(2,3-Dimethylphenoxy)butyl]pyrrolidine] | ≥ 8.00 | ≥ 8.00 | ≤ 10 nM | ≤ 10 nM
17 | CC(C)[C@H](Oc1ccc(Cl)cc1)[C@H]1CCNC1 [Example 5, (S)-3-[(S)-1-(4-Chlorophenoxy)-2-methylpropyl]pyrrolidine] | ≥ 8.00 | ≥ 8.00 | ≤ 10 nM | ≤ 10 nM

Row | Compound | pKi (hSERT [1]) | pKi (hNET [2]) | IC50 (hSERT [3]) | IC50 (hNET [4])
18 | CC(C)[C@H](Oc1ccc(Cl)c(Cl)c1F)[C@H]1CCNC1 [Example 6-7, (S)-3-[(S)-1-(3,4-Dichloro-2-fluorophenoxy)-2-methylpropyl]pyrrolidine] | ≥ 8.00 | ≥ 8.00 | ≤ 10 nM | ≤ 10 nM
19 | CC(C)[C@H](Oc1ccc(Cl)c(F)c1F)[C@H]1CCNC1 [Example 6-10, (S)-3-[(S)-1-(4-Chloro-2,3-difluorophenoxy)-2-methylpropyl]pyrrolidine] | ≥ 8.00 | ≥ 8.00 | ≤ 10 nM | ≤ 10 nM
20 | CC(C)C(Oc1ccccc1Cl)C1CCNC1 (stereo not shown) [Example 6-11, 3-[1-(2-Chlorophenoxy)-2-methylpropyl]pyrrolidine] | ≥ 8.00 | ≥ 8.00 | ≤ 100 nM | ≤ 10 nM
21 | CC(C)[C@H](Oc1cccc(Cl)c1Cl)[C@H]1CCNC1 [Example 6-12, (S)-3-[(S)-1-(2,3-Dichlorophenoxy)-2-methylpropyl]pyrrolidine] | ≥ 8.00 | ≥ 8.00 | ≤ 10 nM | ≤ 10 nM
22 | CC(C)C(Oc1cccc(Cl)c1Cl)C1CCNC1 (stereo not shown) [Example 6-13, 3-[1-(2,3-Dichlorophenoxy)-2-methylpropyl]pyrrolidine] | ≥ 8.00 | ≥ 8.00 | ≤ 10 nM | ≤ 10 nM
23 | CC(C)[C@@H](Oc1cccc(Cl)c1Cl)[C@H]1CCNC1 [Example 6-14, (S)-3-[(R)-1-(2,3-Dichlorophenoxy)-2-methylpropyl]pyrrolidine] | ≥ 8.00 | ≥ 8.00 | ≤ 10 nM | ≤ 10 nM
24 | CC(C)[C@@H](Oc1cccc(Cl)c1Cl)[C@@H]1CCNC1 [Example 6-15, (R)-3-[(R)-1-(2,3-Dichlorophenoxy)-2-methylpropyl]pyrrolidine] | ≥ 8.00 | ≥ 8.00 | ≤ 10 nM | ≤ 10 nM
25 | CC(C)[C@H](Oc1cccc(F)c1Cl)[C@H]1CCNC1 [Example 6-17, (S)-3-[(S)-1-(2-Chloro-3-fluorophenoxy)-2-methylpropyl]pyrrolidine] | ≥ 8.00 | ≥ 8.00 | ≤ 10 nM | ≤ 10 nM
26 | CC(C)C(Oc1cccc(F)c1Cl)C1CCNC1 (stereo not shown) [Example 6-18, 3-[1-(2-Chloro-3-fluorophenoxy)-2-methylpropyl]pyrrolidine] | ≥ 8.00 | ≥ 8.00 | ≤ 100 nM | ≤ 10 nM
27 | CC(C)[C@@H](Oc1cccc(F)c1Cl)[C@H]1CCNC1 [Example 6-19, (S)-3-[(R)-1-(2-Chloro-3-fluorophenoxy)-2-methylpropyl]pyrrolidine] | ≥ 8.00 | ≥ 7.00 | ≤ 10 nM | ≤ 100 nM
28 | CC(C)[C@H](Oc1ccc(Cl)cc1Cl)[C@H]1CCNC1 [Example 6-21, (S)-3-[(S)-1-(2,4-Dichlorophenoxy)-2-methylpropyl]pyrrolidine] | ≥ 8.00 | ≥ 8.00 | ≤ 10 nM | ≤ 10 nM
29 | Cc1ccc(O[C@@H](C(C)C)[C@H]2CCNC2)c(Cl)c1 [Example 6-24, (S)-3-[(S)-1-(2-Chloro-4-methylphenoxy)-2-methylpropyl]pyrrolidine] | ≥ 8.00 | ≥ 8.00 | ≤ 10 nM | ≤ 10 nM
30 | CC(C)[C@H](Oc1c(F)cc(Cl)cc1Cl)[C@H]1CCNC1 [Example 6-30, (S)-3-[(S)-1-(2,4-Dichloro-6-fluorophenoxy)-2-methylpropyl]pyrrolidine] | ≥ 8.00 | ≥ 8.00 | ≤ 10 nM | ≤ 10 nM
31 | CC(C)[C@H](Oc1c(F)ccc(Cl)c1Cl)[C@H]1CCNC1 [Example 6-34, (S)-3-[(S)-1-(2,3-Dichloro-6-fluorophenoxy)-2-methylpropyl]pyrrolidine] | ≥ 8.00 | ≥ 8.00 | ≤ 10 nM | ≤ 10 nM
32 | CC(C)[C@H](Oc1c(Cl)ccc(Cl)c1Cl)[C@H]1CCNC1 [Example 6-35, (S)-3-[(S)-2-Methyl-1-(2,3,6-trichlorophenoxy)-propyl]-pyrrolidine] | ≥ 8.00 | ≥ 8.00 | ≤ 10 nM | ≤ 10 nM
33 | CC(C)[C@H](Oc1c(F)ccc(F)c1Cl)[C@H]1CCNC1 [Example 6-36, (S)-3-[(S)-1-(2-Chloro-3,6-difluorophenoxy)-2-methylpropyl]pyrrolidine] | ≥ 8.00 | ≥ 8.00 | ≤ 100 nM | ≤ 10 nM
34 | CC(C)[C@H](Oc1c(Cl)c(F)cc(F)c1Cl)[C@H]1CCNC1 [Example 6-38, (S)-3-[(S)-1-(2,6-Dichloro-3,5-difluorophenoxy)-2-methylpropyl]pyrrolidine] | ≥ 8.00 | ≥ 8.00 | ≤ 100 nM | ≤ 10 nM
